Results: patent US20170086467A1, “MOLLUSCICIDE COMPOSITIONS AND METHODS OF USE THEREOF” (ECOFLORA AGRO SAS, priority 2014, published 2017)
Read-outs that look alike come from different tables or passages of the source.

Experiments:
[1] = test system: banana tree snails (African snails); assay: Mortality of banana plantation snails on treated plates in a shade house; format: in vivo; details: T7, 2 g/plate
Description: The experiments were conducted in a shade house. Plastic plates and baskets for cover were used to keep the snails in contact with the products. Live snails were obtained by collection/pick up in a banana plantation. Approximately 250 snails were captured early in the morning, the time of day when they are still found in large numbers on the leaves and trunks of banana plants.
BROMOREX® 9.37 is a liquid formulation comprising capsicum extract and mustard essential oil. metaldehyde is a chemical molluscicide.
Four plates per treatment were randomly arranged on a shelf in the shade house. At the bottom of each plate small portions of banana leaves, papaya, and two slices of ripe bananas were placed. 20 mL of each sample was poured into each plate. Eight live snails of the same morphology and size were placed on each plate. Each treatment was repeated 4 times. The plates were covered with baskets that promoted good ventilation and prevented the snails from escaping. The treatments were carried out in late afternoon.
The behavior of snails in contact with the products as well as the mortality of the snails were recorded and interpreted. The data on the mortality of snails to 5 days after application of the products were statistically analyzed using the R software version 3.0.1. The separation of averages for significant effects was made using the Newman-Keuls test at 5% significant level.

[2] = 200° C.; one hour drying
Description: Caffeine was also quantitated by HPLC to determine the thermal stability of the molecule.

Structure (SMILES)	mortality rate ([1]; 3 hours after treatment)	mortality rate ([1]; after 5 days)	thermal stability (in words) [2]	thermal stability (in words)
CC1OC(C)OC(C)OC(C)O1 (stereo not shown) [metaldehyde]	6.25%	34%		
Cn1c(=O)c2c(ncn2C)n(C)c1=O [caffeine, 3,7-dihydro-1,3,7-trimethyl-1H-purine-2,6-dione]			Pyrolysis and caffeine sublimation were observed	stable
